Results published in US7186830B2, “Tricyclic 2-pyrimidone compounds useful as HIV reverse transcriptase inhibitors” (Bristol-Myers Squibb Company, priority 2002, dated 2007).

With `Cc1nc2c(c(=O)[nH]1)Nc1ccc(C#N)cc1C2(COC(C)C)C(F)(F)F` (centres unmarked) [Example 7, 8-Cyano-10-(isopropoxymethyl)-2-methyl-10-(trifluoromethyl)-5,10-dihydropyrimido[5,4-b]quinolin-4(3H)-one] as the molecule, how does the melting point read?
The melting point was 277.3 to 278.1 °C (dec.).

With `N#Cc1ccc2c(c1)C(CCC1CC1)(C(F)(F)F)c1nc[nH]c(=O)c1N2` (centres unmarked) [Example 9, 8-Cyano-10-(2-cyclopropylethyl)-10-(trifluoromethyl)-5,10-dihydropyrimido[5,4-b]quinolin-4(3H)-one] as the molecule, how does the melting point read?
Its melting point is > 280 °C.
